In patent publication US4161598A, “1-Oxygenated-2,6-methano-3-benzazocines” (Sterling Drug Inc., priority 1977, dated 1979):
Where a name gives a salt, the structure may show the parent alone.

Columns and labels:
phenazocine = test: Tail-flick Antagonist Test against phenazocine; conditions: Rattus norvegicus, sc, 10 min, read-out: Subcutaneous AD50 (95% Confidence Limits) Against Phenazocine
acetylcholine = test: Anti-acetylcholine Writhing Test; type: in vivo, mice; conditions: Mus musculus, sc, 20 min, subcutaneous; form tested not given; read-out: Subcutaneous ED50 (95% Confidence Limits)
Procedure: This response has also been called writhing. Animals are pretreated with test compounds (20 minutes for both subcutaneous and oral routes) and observed for two minutes immediately following the administration of acetylcholine. Mice not responding during the two-minute observation period are scored protected while those responding one or more times are scored not protected. Test compounds are screened at doses of 75 and 25 mg./kg. subcutaneously or 150 and 50 mg./kg. orally. […] ED50 values for active compounds are estimated by probit analysis of quantal scores for 4 or more dosage levels using 15 animals per dose. Vehicle-pretreated control animals are tested concurrently with each run of 15 experimental animals.

Row | Structure (SMILES) | ED50 (phenazocine) [mg/kg] | ED50 (acetylcholine) [mg/kg]
1 | CC(C)C(=O)Oc1ccc2c(c1)[C@]1(C)CCN(CC3CC3)[C@H](C2=O)[C@@H]1C (relative stereo) [Example 6, 1,2,3,4,5,6-hexahydro-1-oxo-3-cyclopropylmethyl-8-isobutyryloxy-6(eq),11(ax)-dimethyl-2,6-methano-3-benzazocine] | 7 | 0.09
2 | CCCN1CC[C@@]2(CC)c3cc(O)ccc3C(=O)[C@@H]1[C@@H]2C (relative stereo) [Example 36, 1,2,3,4,5,6-hexahydro-3-propyl-1-oxo-8-hydroxy-6(eq)-ethyl-11(ax)-methyl-2,6-methano-3-benzazocine methanesulfonate] | 6.2 | 1
3 | CC(C)CC(=O)Oc1ccc2c(c1)[C@]1(C)CCN(CC3CC3)[C@H](C2=O)[C@@H]1C (relative stereo) [Example 7, 1,2,3,4,5,6-hexahydro-1-oxo-3-cyclopropylmethyl-8-isovaleryloxy-6(eq),11(ax)-dimethyl-2,6-methano-3-benzazocine] | 5.2 | 0.06
4 | C[C@@H]1[C@H]2C(=O)c3ccc(O)cc3[C@]1(C)CCN2CC1CC1 (relative stereo) [Example 27, 1,2,3,4,5,6-hexahydro-1-oxo-3-cyclopropylmethyl-8-hydroxy-6(eq),11(eq)-dimethyl-2,6-methano-3-benzazocine hydrochloride hemiethanolate] | 2.8 | 30
5 | C[C@H]1[C@H]2C(=O)c3ccc(OC(=O)c4ccccc4)cc3[C@]1(C)CCN2CC1CC1 (relative stereo) [Example 9, 1,2,3,4,5,6-hexahydro-1-oxo-3-cyclopropylmethyl-8-benzoyloxy-6(eq),11(ax)-dimethyl-2,6-methano-3-benzazocine] | 14 | 0.07
6 | C[C@H]1[C@H]2C(=O)c3ccc(OC(=O)c4ccc(C(F)(F)F)cc4)cc3[C@]1(C)CCN2CC1CC1 (relative stereo) [Example 13, 1,2,3,4,5,6-hexahydro-1-oxo-3-cyclopropylmethyl-8-(p-trifluoromethylbenzoyloxy)-6(eq),11(ax)-dimethyl-2,6-methano-3-benzazocine] | – | 0.05
7 | Cc1ccc(C(=O)Oc2ccc3c(c2)[C@]2(C)CCN(CC4CC4)[C@H](C3=O)[C@@H]2C)cc1 (relative stereo) [Example 12, 1,2,3,4,5,6-hexahydro-1-oxo-3-cyclopropylmethyl-8-(p-toluyloxy)-6(eq),11(ax)-dimethyl-2,6-methano-3-benzazocine] | – | 0.06
8 | COc1ccc(C(=O)Oc2ccc3c(c2)[C@]2(C)CCN(CC4CC4)[C@H](C3=O)[C@@H]2C)cc1 (relative stereo) [Example 10, 1,2,3,4,5,6-hexahydro-1-oxo-3-cyclopropylmethyl-8-(p-anisoyloxy)-6(eq),11(ax)-dimethyl-2,4-methano-3-benzazocine] | – | 0.1
9 | CCC[C@]12CCN(CC3CC3)[C@H](C(=O)c3ccc(O)cc31)[C@@H]2C (relative stereo) [Example 32C, 1,2,3,4,5,6-hexahydro-1-oxo-3-cyclopropylmethyl-8-hydroxy-6(eq)-propyl-11(ax)-methyl-2,6-methano-3-benzazocine] | – | 1.5
10 | COc1cccc(C(=O)Oc2ccc3c(c2)[C@]2(C)CCN(CC4CC4)[C@H](C3=O)[C@@H]2C)c1 (relative stereo) [Example 11, 1,2,3,4,5,6-hexahydro-1-oxo-3-cyclopropylmethyl-8-(m-anisoyloxy)-6(eq),11(ax)-dimethyl-2,6-methano-3-benzazocine hydrochloride] | – | 0.1
11 | C[C@H]1[C@H]2C(=O)c3ccc(OC(=O)CC(C)(C)C)cc3[C@]1(C)CCN2CC1CC1 (relative stereo) [Example 8, 1,2,3,4,5,6-hexahydro-1-oxo-3-cyclopropylmethyl-8-(3,3-dimethylbutanoyloxy)-6(eq),11(ax)-dimethyl-2,6-methano-3-benzazocine] | – | 0.08
